Where “and” joins values, the source holds several entries; their conditions need not be identical. Equal values may be shown once.
Assay: in vivo
Conditions: rat; for Individual plasma concentration: listed as (R,S)-naphthylfenoterol, fumarate
Protocol: Dose calculations (mg/kg) were based on the individual body weight measured on the day of treatment. Study duration for pharmacokinetic studies was 6 hours. […] Urine was collected for 0-6 hours and 6 to 24 hours from 3 rats in each treatment group.
In the two-compartment model, the drug distributes into two compartments, the central compartment and the tissue, or peripheral compartment. The central compartment represents the blood, extracellular fluid, and highly perfused tissues. The drug distributes rapidly and uniformly in the central compartment. A second compartment, known as the tissue or peripheral compartment, contains tissues in which the drug equilibrates more slowly. Drug transfer between the two compartments is assumed to take place by first-order processes.
The following abbreviations are utilized in Table 4 below: alpha—macro rate constant associated with the distribution phase; beta—macro rate constant associated with the elimination phase; A, B—zero time intercept associated with the alpha phase and beta phase, respectively; AUC—area under the curve; T1/2 (K10)—half-life associated with the rate constant K10; K10—elimination rate—rate at which the drug leaves the system from the central compartment; K12—rate at which drug enters tissue compartment from the central compartment; K21—rate at which drug enters central compartment from tissue compartment; V1—volume of distribution of the central compartment; V2—volume of distribution of the tissue compartment; Vss—volume of distribution at steady state; and Cl—clearance.

[1] = male, Sprague-Dawley, plasma, iv, 5 mg/kg
[2] = male, Sprague-Dawley, plasma, iv, 5 mg/kg, Individual plasma concentration, IV 5 mg/kg, individual rats
[3] = male, Sprague-Dawley, plasma, iv, 5 mg/kg, Plasma concentration, Average, IV 5 mg/kg
[4] = IV 5 mg/kg, two-compartment open model

C[C@@H](Cc1cccc2ccccc12)NC[C@H](O)c1cc(O)cc(O)c1.O=C(O)/C=C/C(=O)O [(R,S)-5, (R,S)-(−)-5-{1-hydroxy-2-[1-methyl-2-(1-naphthyl)ethylamino]ethyl}-1,3-benzenediol fumarate]
AUC [1]: 1950 ng·h/mL | Vd [1]: 2.2 L | clearance [1]: 12.7 mL/min | half-life [1]: 18.1 min | concentration at 5 min [2]: 2520 ng/mL | concentration at 15 min [2]: 850 ng/mL | concentration at 30 min [2]: 490 ng/mL | concentration at 60 min [2]: 360 ng/mL | concentration at 120 min [2]: 250 ng/mL | concentration at 240 min (male, Sprague-Dawley, plasma, iv, 5 mg/kg, Individual plasma concentration, IV 5 mg/kg, 240 min, individual rats): 110 ng/mL | concentration at 300 min (male, Sprague-Dawley, plasma, iv, 5 mg/kg, Individual plasma concentration, IV 5 mg/kg, 300 min, individual rats): 100 ng/mL | concentration at 360 min [2]: 80 ng/mL | concentration at 5 min [3]: 2110 ng/mL | concentration at 15 min [3]: 680 ng/mL | concentration at 30 min [3]: 430 ng/mL | concentration at 60 min [3]: 340 ng/mL | concentration at 120 min [3]: 240 ng/mL | concentration at 240 min (male, Sprague-Dawley, plasma, iv, 5 mg/kg, Plasma concentration, Average, IV 5 mg/kg, 240 min): 120 ng/mL | concentration at 300 min (male, Sprague-Dawley, plasma, iv, 5 mg/kg, Plasma concentration, Average, IV 5 mg/kg, 300 min): 110 ng/mL | concentration at 360 min [3]: 90 ng/mL | K12 (IV 5 mg/kg): 0.1213 min⁻¹ | K21 (IV 5 mg/kg): 0.0214 min⁻¹ | Individual plasma concentration (IV 5 mg/kg, 240 min, individual rats): 0.11 ug/ml (2×) and 0.13 ug/ml (2×) | Individual plasma concentration (IV 5 mg/kg, 300 min, individual rats): 0.11 µg/mL | V1 (IV 5 mg/kg, central compartment): 330.83 mL | K10 (IV 5 mg/kg, elimination rate): 0.0383 min⁻¹ | V2 (IV 5 mg/kg, tissue compartment): 1872.92 mL | Alpha [4]: 0.1764 min⁻¹ | Beta [4]: 0.0046 min⁻¹ | A (IV 5 mg/kg, two-compartment open model, zero time intercept alpha phase): 4.0365 µg/mL | B (IV 5 mg/kg, zero time intercept beta phase): 0.4372 µg/mL
